The NIST ThermoML archive (doi:10.1021/je800701j)

What was measured:
[1] = xn = mol fraction of the nth substance listed; conditions: 101 kPa, Liquid, Pycnometric method
[2] = 101 kPa, Liquid, Pycnometric method

CC(=O)[O-].CCn1cc[n+](C)c1 [1-ethyl-3-methylimidazolium acetate] + CCn1cc[n+](C)c1.O=C([O-])C(F)(F)F
[1], x2 = 0
Conditions | mass density [kg/m3]
298.1 K | 1102
323.1 K | 1086
348.1 K | 1073
373.1 K | 1059

CCn1cc[n+](C)c1.O=C([O-])C(F)(F)F [1-ethyl-3-methylimidazolium trifluoroacetate] + CC(=O)[O-].CCn1cc[n+](C)c1
mass density [kg/m3], [1]
Conditions | 298.1 K | 323.1 K | 348.1 K | 373.1 K
x1 = 0.2464 | 1152 | 1136 | 1121 | 1107
x1 = 0.5002 | 1204 | 1189 | 1172 | 1157
x1 = 0.7468 | 1252 | 1235 | 1217 | 1202
x1 = 1 | 1301 | 1283 | 1264 | 1250

CC(=O)[O-].CCn1cc[n+](C)c1 [1-ethyl-3-methylimidazolium acetate]
[2]
Conditions | mass density [kg/m3]
298.1 K | 1102
323.1 K | 1086
348.1 K | 1073
373.1 K | 1059

CCn1cc[n+](C)c1.O=C([O-])C(F)(F)F [1-ethyl-3-methylimidazolium trifluoroacetate]
[2]
Conditions | mass density [kg/m3]
298.1 K | 1301
323.1 K | 1283
348.1 K | 1264
373.1 K | 1250
